Measured values: patent US9475789B2, “Use of polyenylpyrrole derivatives for treating inflammation” (WELLHEAD BIOLOGICAL TECHNOLOGY CORP., priority 2014, dated 2016)
“Also recorded” adds a separate entry of the source.

How the values were obtained:
Type in all cases: cell-based, murine
TNF-α [1] = test: TNF-α ELISA, LPS-activated JAWSII dendritic cells; settings: LPS 1 μg/ml 24 h
Description: (§1) (A) J774A.1 macrophages (4×10^5/ml), (B) peritoneal macrophages (4×10^5/ml), and (C) JAWSII dendritic cells (4×10^5/ml) were incubated with compound 1h or DMSO for 30 min followed by stimulating with LPS (1 μg/ml) for 24 h, then IL-6 and TNF-α concentration in culture medium were assayed by ELISA. The data are expressed as the mean±SD for three separate experiments. *, **, and *** indicate a significant difference at the level of p<0.05, p<0.01, p<0.001 respectively compared to LPS group.
(§2) The effects of tested samples on IL-1β, TNF-α and IL-6 production were measured by ELISA according to the manufacturer's instruction. In brief, 50 μl of biotinylated antibody reagent and 50 μl of supernatant were added to an anti-mouse IL-1β, TNF-α and IL-6 precoated stripwell plate, and incubated at room temperature for 2 h. After washing the plate three times with washing buffer, 100 μl of diluted streptavidin-HRP concentrate was added to each well and incubated at room temperature for 30 min. The washing process was repeated; then 100 μl of a premixed tetramethylbenzidine substrate solution was added to each well and developed at room temperature in the dark for 30 min. Following the addition of 100 μl of stop solution to each well to stop the reaction, the absorbance of the plate was measured by a microplate reader at 450 nm wavelength.

[2] = system: LPS-induced NO generation in RAW 264.7 macrophages; test: NO inhibitory assay (Griess reaction) in LPS-activated macrophages
Description: In (A) and (C), cells (5×10^5/ml) were incubated with polyenylpyrrole derivatives or DMSO (vehicle) for 30 min followed by stimulating with LPS (1 μg/ml) for 24 h, then NO (A), IL-6 and TNF-α (C) concentration in culture medium were assayed by Griess reaction and ELISA, respectively. In (B), cells (5×10^5/ml) were pretreated with polyenylpyrrole derivatives or DMSO for 30 min followed by stimulating with LPS (1 μg/ml) for 24 h, then the protein expression of iNOS and COX-2 were assayed by Western blot. […] RAW 264.7 cells were seeded in 24-well plates at a density of 5×10^5 cells/ml, and then incubated with or without LPS (1 μg/ml) in the absence or presence of tested samples for 24 h. The effects of the tested samples on NO production were measured indirectly by analysis of nitrite levels using the Griess reaction.

TNF-α [3] = test: TNF-α ELISA, LPS-activated J774A.1 macrophages; settings: J774A.1 cells, LPS 1 μg/ml 24 h
Description: as §1, §2

NF-κB p65 = NF-κB p65 nuclear translocation ELISA, J774A.1 macrophages; settings: compound 1h 10-40 μM, LPS 20 min
Description: (A) RAW 264.7 macrophages (5×10^5/ml) or (B) J774A.1 macrophages (5×10^5/ml) were incubated with compound 1h or DMSO for 30 min followed by LPS (1 μg/ml) stimulating for 20 min, then the phosphorylation levels of IKK-α and IκB-α and total IκB-α protein level were analyzed by Western blot. (C) RAW 264.7 macrophages (5×10^5/ml) or (D) J774A.1 macrophages (5×10^5/ml) were incubated with compound 1h (10-40 μM) or DMSO for 30 min followed by LPS (1 μg/ml) stimulating for 20 min, then the nuclear translocation of NF-κB were analyzed by ELISA. (E) RAW-Blue™ cells (5×10^5/ml) were incubated with compound 1h (2.5-40 μM) or DMSO for 30 min followed by LPS (1 μg/ml) stimulating for 24 h, then the SEAP activity was measured by QUANTI-Blue™. […] In (C), (D), and (E), the data are expressed as the mean±SD for three separate experiments. *, **, and *** indicate a significant difference at the level of p<0.05, p<0.01, and p<0.001 respectively compared to LPS group.
Nuclear protein from RAW 264.7 and J774A.1 cells were extracted using a Nuclear Extract Kit (Active Motif) according to the manufacturer's instructions and nuclear NF-κB p65 activation quantified using an ELISA-based TransAM NF-κB kit (Active Motif, Tokyo, Japan) according to the manufacturer's protocol by reading the absorbance with a microplate absorbance reader (Bio-Rad Laboratories, Inc) at 450 nm with a reference wavelength of 655 nm.

COX-2 = test: Western blot of COX-2 protein in LPS-activated RAW 264.7 macrophages
Description: In (A) and (C), cells (5×10^5/ml) were incubated with polyenylpyrrole derivatives or DMSO (vehicle) for 30 min followed by stimulating with LPS (1 μg/ml) for 24 h, then NO (A), IL-6 and TNF-α (C) concentration in culture medium were assayed by Griess reaction and ELISA, respectively. In (B), cells (5×10^5/ml) were pretreated with polyenylpyrrole derivatives or DMSO for 30 min followed by stimulating with LPS (1 μg/ml) for 24 h, then the protein expression of iNOS and COX-2 were assayed by Western blot.
(§3) Whole cell lysates were separated by SDS-PAGE and electrotransferred to a PVDF membrane. The membranes were incubated in blocking solution—5% nonfat milk in phosphate buffered saline with 0.1% Tween 20—at room temperature for 1 h. Each membrane was incubated with a specific primary antibody at room temperature for 2 h. After washing three times in PBS with 0.1% Tween 20, the membrane was incubated with an HRP-conjugated secondary antibody directed against the primary antibody. The membrane was developed by an enhanced chemiluminescence Western blot detection system.

ERK1/2, JNK1/2, p38 = test: Western blot of MAPK phosphorylation, LPS-activated J774A.1 macrophages; settings: LPS-activated J774A.1, LPS 20 min
Description: In (A), RAW 264.7 macrophages (5×10^5/ml) were incubated with compound 1h (20 μM), N-acetyl cysteine (NAC; 10 mM) or DMSO (vehicle) for 30 min followed by LPS (1 μg/ml) stimulating for the indicated time, then ROS levels were measured by detection of the fluorescence intensity of the fluorophore carboxyl-DCF and expressed relative to those at time zero. In (B), RAW 264.7 macrophages (5×10^5/ml) were incubated with compound 1h (20 μM) or DMSO for 30 min followed by LPS (1 μg/ml) stimulating for 0-60 min, then the phosphorylation levels of ERK1/2, JNK1/2, p38 were analyzed by Western blot. In (C), J774A.1 macrophages (5×10^5/ml) were incubated with compound 1h or DMSO for 30 min followed by LPS (1 μg/ml) stimulating for 20 min, then the phosphorylation levels of ERK1/2, JNK1/2, p38 were analyzed by Western blot.
as §3

SMILES: O=c1cc(O)cc(/C=C/C=C/C=C/C=C/c2[nH]ccc2Cl)o1 [Compound 1h]
- secretion of TNF-α (TNF-α [1]): also reduced
- EC50 ([2]; Mus musculus, RAW264.7, 50% inhibition of the LPS-induced NO generation, RAW 264.7, LPS 1 μg/ml, 24 h, read-out: ED50 (the source's name)): 15 ± 2 µM
- production of NO by LPS-activated cells ([2]; RAW 264.7, LPS 1 μg/ml 24 h, Griess reaction): decreased production; also recorded: decreased the production of NO by LPS-activated cells in a dose-dependent manner
- background level of NO ([2]; compound alone, no LPS, RAW 264.7, data not shown): did not alter
- secretion of TNF-α (TNF-α [3]): reduced
- NF-κB nuclear translocation (NF-κB p65): inhibited NF-κB nuclear translocation
- COX-2 expression (COX-2): did not affect
- phosphorylation levels of ERK1/2, JNK1/2, p38 (ERK1/2, JNK1/2, p38): confirmed
